{
  "source": "patent US20010044447A1",
  "about": "(priority 1999, published 2001)",
  "key": {"[1]": {"test_system": "motoneurons (trophic activity produced by spinal astrocytes)", "type": "cell-based, Wistar rats", "details": "each product 0.1 μM; astrocyte monolayers exposed 24 hours, conditioned medium taken up 24 hours later; percentage of the number of motoneurons in cultures maintained with BDNF; vehicle alone 44 ± 1.41", "method": "The motoneurons are plated, at a density of 2500 cells per 35 mm plate, on culture plates previously coated with laminin/ornithine according to the method of A. G. ESTEVEZ et al., J. Neurosci., 18 (3), 923-931 (1998). The cultures are then maintained in L15 medium (GIBCO BRL) containing sodium bicarbonate (22 mM), conalbumin (0.1 mg/ml), putrescine (0.1 mM), insulin (5 μg/ml), sodium selenite (31 nM), glucose (20 mM), progesterone (21 nM), penicillin (100 IU/ml) and streptomycin (100 μg/ml).\nThe motoneurons thus obtained are composed of large (25-30 μM) and homogeneous neurones with long branched neurites. More than 70% of the cells are immunoreactive for the p75 neurotrophin receptor and the markers Islet 1/2 for the spinal motoneurons. About 70% of the motoneurons die by apoptosis 24 hours after the plating if the culture is carried out in the absence of a trophic factor. […]\nThe monolayers of astrocytes show a purity of more than 98% determined by immunoreactivity for the glial fibrillary acidic protein (GFAP). […]\nThe number of motoneurons is evaluated by counting the labelled cells in a surface area of 0.4-1 cm^2 under a microscope with a 200 times magnification."}, "[2]": {"test_system": "motoneurons (trophic activity produced by spinal astrocytes)", "details": "H. PELUFFO et al., Neuroscience letters, 228, 207-211 (1997); cited from earlier work"}},
  "data": [
    {"smiles": "CO[C@]12C[C@@H](CO)CN(C)[C@@H]1Cc1cn(C)c3cccc2c13", "note": "[lumilysergol, 1,6-dimethyl-8β-hydroxymethyl-10α-methoxyergoline]", "values": [
      {"measurement": "Motoneuronal survival in %", "setting": "[1]", "value": "57.4 ± 3.53", "unit": "%"}
    ]},
    {"smiles": "CO[C@]12C[C@@H](COC(=O)c3cncc(Br)c3)CN(C)[C@@H]1Cc1cn(C)c3cccc2c13", "note": "[nicergoline, (8 p)-10-methoxy-1,6-dimethylergoline-8-methanol-5-bromonicotinate]", "values": [
      {"measurement": "Motoneuronal survival in %", "setting": "[1]", "value": "44.5 ± 3.53", "unit": "%"}
    ]},
    {"smiles": "Nc1nc2ccc(OC(F)(F)F)cc2s1", "note": "[riluzole]", "values": [
      {"measurement": "Production, by the astrocytes, of trophic activity for the motoneurons", "setting": "[2]", "value": "stimulated"}
    ]}
  ]
}
